The structures appear in SMILES notation. Several values for one entry are separate records, joined by “and”; a condition that tells them apart may be missing. Equal entries are not always repeated.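 Five concentrations, 48 hours, 96-well plates. The concentration for 50% growth inhibition is given as GI50. TGI is the concentration that stops growth completely.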

Experimental findings from PubChem BioAssay (NCI) are described below.

In the experiment the test system is MDA-MB-468 breast. The experiment in a line: growth of human tumour cells (NCI), 48 h.
For `CC(=O)OCC(=O)[C@@]1(O)[C@H](C)C[C@H]2[C@@H]3C=C(C)C4=Cc5c(cnn5-c5ccc(F)cc5)C[C@]4(C)[C@H]3[C@@H](O)C[C@@]21C`, the GI50 is 2.01 µM and the TGI came to 3.92 µM.
In the case of `CC(C)(C)Cn1c(N)nc2ccc(-c3[nH]c(C(C)(C)C)nc3-c3ccc(F)cc3)nc21`, the GI50 was 3.1 µM and the TGI was 16.8 µM.
For `Cc1sc2ncnc(Sc3nc4ccccc4[nH]3)c2c1C` the same measures were 17.7 µM and 60.5 µM.
Take `CCCCCC(=O)N1c2ccccc2NC2=C(C(=O)CC(c3ccc(OC)c(OC)c3)C2)C1c1ccc(C(F)(F)F)cc1` (stereo unspecified): the GI50 was greater than 100 µM and the TGI was greater than 100 µM.
Consider `O=C(O)C(/C=C/c1ccco1)=N\Nc1nc(-c2ccc(Cl)cc2)cs1`, for which the GI50 is 10.6 µM and the TGI is greater than 50 µM.
Turning to `C=C1C(=O)O[C@H]2[C@H]1CC/C(COC(=O)NCCc1ccc(OC)cc1)=C\CC[C@@]1(C)O[C@@H]21`, the GI50 was 1.55 µM and the TGI came to 3.85 µM.
For the compound `COc1cc(C)cc2c1OC(c1ccccc1)CC2=O` (stereo unspecified), the GI50 was greater than 100 µM and the TGI was greater than 100 µM.
On to `COc1cc(N2CCC(N(C)C)CC2)ccc1Nc1ncc(Cl)c(Nc2ccccc2P(C)(C)=O)n1`, for which the GI50 was 1.22 µM and 0.897 µM; the TGI was 3.71 µM and 4.49 µM.
For the compound `COc1nccc(-c2c(-c3ccc(F)cc3)ncn2C2CCC(O)CC2)n1` (stereo unspecified), the GI50 was 21.6 µM and the TGI was greater than 89.4 µM.
Consider `COC(=O)c1c2c(c(C)[n+]([O-])c1C)C(=O)C=C(NCc1ccc(Cl)cc1)C2=O`, for which the GI50 is 0.223 µM and the TGI is 0.76 µM.
For `CC1OC(O[C@@H]2C(O)C(CO)OC(O[C@H]3COC(O[C@H]4CC[C@]5(C)[C@H]6CC[C@]78OC[C@@]9(CC[C@](C)(C=O)C[C@H]97)[C@H](O)C[C@@]8(C)[C@]6(C)CC[C@H]5C4(C)C)[C@@H](OC4OC(CO)[C@@H](O)[C@@H](O)[C@@H]4O)[C@@H]3O)[C@H]2OC2OC[C@@H](O)[C@@H](O)[C@@H]2O)[C@@H](O)[C@@H](O)[C@H]1O` (stereo partly specified) the same measures were 1.59 µM and 3.28 µM.
For the compound `O=c1cc/c(=N\Nc2ccccc2)c(=O)/c1=N/Nc1ccccc1`, the GI50 is greater than 50 µM and the TGI is greater than 50 µM.
Consider `CCN(CC)c1ccc(/C=N/NC(=O)c2ccc(Nc3ccnc(C(F)(F)F)c3)cc2)c(O)c1`, for which the GI50 was 0.227 µM and the TGI is 0.956 µM.
The like results for `C#Cc1cccc(NC(=O)Nc2ccc(NC(=O)CCl)cc2)c1` were, in that order, 13.3 µM and 32.1 µM.
As for `COc1ccc(/C=C/C(=O)c2ccc(Nc3ncnc4ccccc34)cc2)cc1OC`, the GI50 was 2.17 µM and the TGI worked out at 7.29 µM.
In the case of `S=C(Nc1ccccc1)c1ccccn1`, the GI50 is 45.3 µM and the TGI was greater than 100 µM.
Take `c1ccc(-c2nc(Nc3ccc(-c4nc5ccccc5[nH]4)cc3)nc(N3CCOCC3)n2)cc1`: the GI50 was 2.13 µM and the TGI came out at 4.39 µM.
As to `FC(F)(F)c1ccc2c(c1)N(CCCN1CCN(C3CC3)CC1)c1ccccc1S2`, the GI50 is 3.84 µM and the TGI worked out at 15.1 µM.
Regarding `COC(=O)Nc1ccc2ccc3c(NC(=O)OC)ccc4ccc1c2c43` (tested in a mixture with another compound), the GI50 is 3.8 µM and the TGI was 19.2 µM.
Take `Cc1cn(-c2cc(NC(=O)c3cncc(C#Cc4cnc5ccc(OCCCS(C)(=O)=O)nn45)c3)cc(C(F)(F)F)c2)cn1`: the GI50 is 2.2 µM and the TGI is 7.33 µM.
Consider `COc1ccc(C2CC(=O)Nc3c2c(C)nn3-c2nc3ccccc3[nH]2)cc1` (stereo unspecified), for which the GI50 is 2.86 µM and the TGI stood at 12.6 µM.
With `OCCNc1nc(NCCO)nc(Nc2ccc(C3=NN(c4cc(Cl)cc(Cl)c4)C(c4ccc(Cl)cc4)C3)cc2)n1` (stereo unspecified), the GI50 was 1.92 µM and the TGI worked out at 3.77 µM.
Regarding `Cn1cnc2c(F)c(Nc3ccc(Br)cc3Cl)c(C(=O)NOCCO)cc21`, the GI50 is > 10 µM and 11.9 µM; the TGI is > 10 µM and 71.1 µM.
Regarding `[N-]=[N+]=Nc1ncc(-c2ccc(C(F)(F)F)cc2)c(NC2CCCCCC2)n1`, the GI50 is greater than 10 µM and the TGI is greater than 10 µM.
Regarding `CCN(CC)CCC(=O)Nc1cccc2c1C(=O)c1c(c(O)c3ccccc3c1O)C2=O`, the GI50 is greater than 100 µM and the TGI was greater than 100 µM.
For `COc1ccc2c(c1)[nH]c(=O)c1c3cccnc3cn21`, the GI50 is 0.133 µM and the TGI came out at 2.33 µM.
On to `Nc1nc(-n2cccn2)nc(-n2cccn2)c1Br`, for which the GI50 was greater than 100 µM and the TGI was greater than 100 µM.
`CCCCCCn1c(-c2ccc(C(=O)O/N=C(\N)c3ccc(OC)cc3)cc2)nc(-c2ccccc2)c1-c1ccccc1`: the GI50 is 1.75 µM and the TGI is 3.51 µM.
The like results for `Cc1ccc(NC(=O)c2ccnc(C(F)(F)F)c2)cc1-c1cc(OCCO)nc(N2CCOCC2)c1` were, in that order, 1.82 µM and 7.09 µM.
With `O=[N+]([O-])c1cccc(-c2nc3sccn3c2-c2ccnc(NCCCNS(=O)(=O)c3ccc(F)cc3)n2)c1`, the GI50 was 1.5 µM and the TGI was determined as 7.11 µM.
In the case of `N#Cc1nc(-c2cccc(Br)c2)cc(-c2ccc(Nc3nc(N4CCCCC4)nc(N4CCCCC4)n3)cc2)c1N`, the GI50 was 2.16 µM and the TGI was found to be 5.64 µM.
On to `CCCCCCN1C(=O)/C(=c2\sc3n(c2=O)C2C(NN=3)N(CC)C(=O)N2CC)c2ccccc21` (stereo unspecified), for which the GI50 is 1.41 µM and the TGI was greater than 50 µM.
Take `Cc1cccc2c3c(sc12)C(c1ccc(Cl)cc1)C(C#N)=C(/N=C/c1ccc(Cl)cc1)O3` (stereo unspecified): the GI50 was 0.257 µM and the TGI was 2 µM.
In the case of `CCCCCCCCCCCCCCCCCCOc1ccccc1CC(=O)OCC[N+](C)(C)C`, the GI50 is 1.37 µM and the TGI is 3.05 µM.
For `O=C(Nc1ccccc1Cl)c1cnc2ccc(C3CCNCC3)cn12` the same measures were 2.13 µM and 9.54 µM.
For `CNC(=O)c1cc(Oc2ccc3nc(NC(=O)Nc4ccc(Cl)c(Cl)c4)sc3c2)ccn1`, the GI50 is 1.97 µM and the TGI stood at 5.09 µM.
Consider `Cn1cc(-c2cc3ncnc(Nc4ccc(NC(=O)Nc5cc(C(C)(C)C)on5)cc4)c3s2)cn1`, for which the GI50 is 0.92 µM and the TGI is 4.75 µM.
`COc1cc2c3c(n(CCCNC4CCCC4)c(=O)c2cc1OC)-c1cc2c(cc1C3=O)OCO2`: the GI50 is 5.6 µM and the TGI amounted to 19.6 µM.
For the compound `O=C(CNC(=O)c1cccc2ccccc12)Nc1ccccc1Oc1cccc(O)c1`, the GI50 was 3.55 µM and the TGI came out at 19.4 µM.
Turning to `O=C(Oc1ccccc1)c1cc(O)c(O)c(O)c1`, the GI50 was 12.6 µM and the TGI stood at 67.5 µM.
Take `N#C/C(=C\c1cn(-c2ccccc2)c2ccccc12)C(=O)O`: the GI50 was 50.7 µM and the TGI is greater than 100 µM.
As to `Clc1cc(Cl)cc(N2N=C(c3cccc(Nc4ccncc4)c3)CC2c2ccccc2)c1` (stereo unspecified), the GI50 is 1.52 µM and the TGI was determined as 3.01 µM.
The like results for `CN(C)c1cccc2[nH]c(-c3[nH]ncc3Nc3ccnc(N)n3)nc12` were, in that order, 0.0145 µM and 0.0422 µM.
